According to patent US8791144B2, “Substituted N-phenyl-1-(4-Pyridinyl)-1H-pyrazol-3-amines” (Janssen Pharmaceutica NV, priority 2009, dated 2014):
Like-named read-outs stand apart in the source and are kept apart here.

Key:
[1] = biological target: T1, hα7-wt nAChR (Homo sapiens, UniProt P36544); assay: Ca2+ flux imaging (FDSS): potentiation of the choline response; type: cell-based; conditions: for EC50: read-out: Potency (pEC50) (converted); for Emax: read-out: % Efficacy
Experimental: • a) Assay Buffer • Hanks buffered saline solution (HBSS, Invitrogen, Belgium), supplemented with 10 mM HEPES (Invitrogen, Belgium), CaCl2 to a final concentration of 5 mM, 0.1% Bovine serum albumin (Sigma-Aldrich NV, Belgium). • b) Calcium-Sensitive Dye—Fluo-4AM • Fluo-4AM (Molecular Probes, USA) was dissolved in DMSO containing 10% Pluronic acid (Molecular Probes, USA) to give a stock solution which was diluted in assay buffer supplemented with 5 mM probenicid (Sigma, Aldrich NV, Belgium) to give a final concentration of 2 μM. • c) 384-Well Plates • Black 384 well plate black/clear plates, PDL pre-coated (Corning, Incorporated, USA) • d) Calcium Flux Measurement • A Functional drug screening system (FDSS, Hamamatsu) was used to measure intracellular free-calcium flux signals. Method
Monolayers of hα7-wt nAChR-expressing cells were grown in multi-well plates, in particular black-sided, transparent bottomed 384 well plates coated with poly-D-lysine for 24 hours prior to loading with a fluorescent calcium indicator, in a particular embodiment loading with fluo-4AM for up to 120 minutes.
PAM activity was detected in real time by applying the compounds to be tested to the loaded cells along with a α7 nicotinic receptor agonist during constant monitoring of cellular fluorescence in a FDSS. Compounds giving peak fluorescent responses greater than the response due to agonist alone, were considered to be α7 nAChR PAM's. In a particular embodiment, the α7 nicotinic receptor agonist was choline, a more particular embodiment choline applied at a sub-maximal concentration of 100 μM. In a further setting of the present invention the compounds to be tested were applied prior to the α7 nicotinic receptor agonist, in a particular embodiment up to 10 minutes prior to the agonist.
A control response to choline was calculated on each plate from the difference in peak in fluorescence in wells receiving either choline or assay buffer alone. Compounds of the present invention were tested at a concentration range from 0.01 μM to 30 μM. Compounds were considered to have an interesting activity when they potentiated the choline signal at least with 200% when tested at a concentration of 30 μM (the efficacy of 100 μM choline was defined as 100% in the absence of a PAM). An EC50 (or pEC50) was determined as a concentration relating to half the maximal effect, when a clear sigmoidal curve with top plateau was obtained.

[2] = biological target: T1, hα7-wt nAChR; assay: Patch-clamp current recording (whole-cell voltage clamp), potentiation of choline current and PAM type; type: cell-based; set-up: key: Type 0 compounds minimally enhance the effect size of the current elicited by 1 mM choline.; Type 1 compounds enhance the effect size of the current elicited by 1 mM choline but minimally alter the kinetics of the receptor.; Type 2 compounds enhance the effect size of the current elicited by 1 mM choline while reducing the rate and/or the extent of desensitization.; Type 3 compounds enhance the effect size of the current elicited by 1 mM choline. When tested at higher concentrations up to 10 μM they completely inhibit desensitization, in particular a 1 mM choline application of 250 milliseconds.; Type 4 compounds allow for an initial desensitization of the receptor followed by a re-opening of the receptor during agonist application; conditions: hα7-wt nAChR-expressing GH4C1 cells, 1 mM choline
Experimental: The compounds of the present invention are classified as type 0-4, based on qualitative kinetic properties, as determined by whole-cell voltage-clamp recordings. This classification is based on the effect of an α7 PAM compound, as described hereinbefore, on the signal elicited by an agonist application. In particular, said agonist is choline at a concentration of 1 mM. In a preferred experimental setting, said α7 PAM compound and choline are simultaneously applied to the cell, as described hereinafter. Desensitization is defined as the closure of the receptor upon activation during the application of the agonist in whole-cell voltage-clamp electrophysiology measurements seen as the reduction of the […] current after initial activation by the agonist.
The definition of the PAM types 0-4 is described hereinafter: • Type 0 compounds minimally enhance the effect size of the current elicited by 1 mM choline. • Type 1 compounds enhance the effect size of the current elicited by 1 mM choline but minimally alter the kinetics of the receptor. In particular, the rate and the extent of desensitization, elicited by the agonist, is not affected. The compound-modulated response to 1 mM choline, therefore, is a close to linear scaling of the 1 mM choline response in absence of the α7 PAM compound. • Type 2 compounds enhance the effect size of the current elicited by 1 mM choline while reducing the rate and/or the extent of desensitization. • Type 3 compounds enhance the effect size of the current elicited by 1 mM choline. […] At low-potency concentrations of the α7 PAM compound, the agonist-induced activation, which is followed by desensitization, can still be separated from the compound-induced re-opening as an initial inward current-maximum. At higher potency concentrations of the α7 PAM compound, the re-opening occurs faster than the closure due to desensitization so that the initial current-maximum disappears.
A compound was considered to have interesting PAM-like activity when the potentiation of the peak current was at least 200% compared to the control choline response (=100%). Such compounds are classified as belonging to a particular PAM type in the Experimental Part. Compounds not meeting the condition are not classified as belonging to a particular PAM-type.
The compounds also have a potentiating effect on the response to choline when measured by whole-cell patch clamp electrophysiology in GH4C1 cells stably over-expressing the human wild-type α7 receptor.
Patch-clamp recording from mammalian cells has provided a powerful means of assessing the function of membrane-bound proteins thought to be subunits of ligand-gated ion channels. Activation of such proteins by endogenous or exogenous ligands cause opening of a pore associated with the receptor through which ions flow down their electrochemical gradient. In the case of the hα7-wt nAChR-expressing GH4C1 recombinant cell line the preferential permeability to calcium of this receptor means that calcium flows into the cell upon activation by ACh, choline and other nicotinic ligands giving rise to a calcium current. Since this receptor rapidly desensitizes in the presence of agonist it is important an application system is used which is capable of very rapid switching of solutions (<100 ms) to prevent partial or full desensitisation of receptor responses coincident with the time of agonist application. Consequently, a second convenient technique to assess the enhancement of nicotinic efficacy is patch-clamp recording from hα7-wt nAChR-expressing GH4C1 cells coupled with a rapid-application system.
• a) Assay Buffers • The external recording solution consisted of 152 mM NaCl, 5 mM KCl, 1 mM MgCl2, 1 mM Calcium, 10 mM HEPES; pH 7.3. […]

[3] = Ca2+ assay as described in D.1, potentiation of choline response, hα7-wt nAChR

T1 sequence (P36544 23-502): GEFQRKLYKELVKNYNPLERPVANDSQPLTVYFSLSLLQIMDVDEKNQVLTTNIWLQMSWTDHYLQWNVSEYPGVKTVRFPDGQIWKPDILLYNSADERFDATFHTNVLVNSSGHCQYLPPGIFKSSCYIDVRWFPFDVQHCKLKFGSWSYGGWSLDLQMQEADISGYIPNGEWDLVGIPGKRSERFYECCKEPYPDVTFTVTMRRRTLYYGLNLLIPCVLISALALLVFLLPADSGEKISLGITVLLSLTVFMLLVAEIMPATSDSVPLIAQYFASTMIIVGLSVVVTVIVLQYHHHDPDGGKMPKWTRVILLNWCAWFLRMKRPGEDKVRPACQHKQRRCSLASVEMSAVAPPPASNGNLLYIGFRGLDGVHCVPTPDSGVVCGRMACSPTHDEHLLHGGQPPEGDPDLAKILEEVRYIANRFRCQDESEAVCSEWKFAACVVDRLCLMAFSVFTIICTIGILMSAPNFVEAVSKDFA

COc1cc(Nc2cc(CC(=O)NCC3CC3)n(-c3ccnc(C)c3)n2)cc(C(F)(F)F)c1 [Compound 5, N-(cyclopropylmethyl)-3-[[3-methoxy-5-(trifluoromethyl)phenyl]amino]-1-(2-methyl-4-pyridinyl)-1H-pyrazole-5-acetamide]
EC50 [1, 3]: 75.9 nM | PAM type [2]: 4 | melting point: 228.3 °C

COc1cc(Nc2cc(CCC(=O)N(C)C)n(-c3ccnc(C)c3)n2)cc(C(F)(F)F)c1 [Compound 9, 3-[[3-methoxy-5-(trifluoromethyl)phenyl]amino]-N,N-dimethyl-1-(2-methyl-4-pyridinyl)-1H-pyrazole-5-propanamide]
EC50 [1, 3]: 170 nM | PAM type [2]: 4 | melting point: 146.4 °C

CC[C@@H](O)Cc1cc(Nc2ccc(F)c(F)c2)nn1-c1ccnc(C)c1 [Compound 10, (alphaR)-3-[(3,4-difluorophenyl)amino]-alpha-ethyl-1-(2-methyl-4-pyridinyl)-1H-pyrazole-5-ethanol]
EC50 [1, 3]: 832 nM | PAM type [2]: 2 | melting point: 164.7 °C

CC[C@H](O)Cc1cc(Nc2ccc(F)c(F)c2)nn1-c1ccnc(C)c1 [Compound 17, (alphaS)-3-[(3,4-difluorophenyl)amino]-alpha-ethyl-1-(2-methyl-4-pyridinyl)-1H-pyrazole-5-ethanol]
Emax [1, 3]: 880% | EC50 [1, 3]: 1660 nM | PAM type [2]: 2 | melting point: 163.2 °C

CC[C@H](O)Cc1cc(Nc2ccc(F)c(F)c2F)nn1-c1ccnc(C)c1 [Compound 18, (alphaS)-alpha-ethyl-1-(2-methyl-4-pyridinyl)-3-[(2,3,4-trifluorophenyl)amino]-1H-pyrazole-5-ethanol]
EC50 [1, 3]: 2400 nM | PAM type [2]: 1 | melting point: 149.1 °C

CC[C@H](O)Cc1cc(Nc2cc(F)c(F)c(F)c2)nn1-c1ccnc(C)c1 [Compound 20, (alphaS)-alpha-ethyl-1-(2-methyl-4-pyridinyl)-3-[(3,4,5-trifluorophenyl)amino]-1H-pyrazole-5-ethanol]
EC50 [1, 3]: 851 nM | PAM type [2]: 2

CC[C@H](O)Cc1cc(Nc2cc(F)c(F)cc2F)nn1-c1ccnc(C)c1 [Compound 21, (alphaS)-alpha-ethyl-1-(2-methyl-4-pyridinyl)-3-[(2,4,5-trifluorophenyl)amino]-1H-pyrazole-5-ethanol]
EC50 [1, 3]: 3470 nM | PAM type [2]: 2 | melting point: 166.6 °C

COCc1cc(Nc2ccc(F)c(F)c2)nn1-c1ccnc(C)c1 [Compound 22, N-(3,4-difluorophenyl)-5-(methoxymethyl)-1-(2-methyl-4-pyridinyl)-1H-pyrazol-3-amine]
EC50 [1, 3]: 1910 nM | Emax [1]: 963% | PAM type [2]: 0 | melting point: 184.2 °C

CCNC(=O)Cc1cc(Nc2ccc(F)c(F)c2)nn1-c1ccnc(C)c1 [Compound 28, 3-[(3,4-difluorophenyl)amino]-N-ethyl-1-(2-methyl-4-pyridinyl)-1H-pyrazole-5-acetamide]
EC50 [1, 3]: 2510 nM | PAM type [2]: 2 | melting point: 242.4 °C

Cc1cc(-n2nc(Nc3ccc(F)c(F)c3)cc2CCC(=O)N(C)C)ccn1 [Compound 30, 3-[(3,4-difluorophenyl)amino]-N,N-dimethyl-1-(2-methyl-4-pyridinyl)-1H-pyrazole-5-propanamide]
EC50 [1, 3]: 977 nM | PAM type [2]: 4

CC[C@@H](O)Cc1cc(Nc2cc(OC)cc(C(F)(F)F)c2)nn1-c1ccnc(C)c1 [Compound 36, (alphaR)-alpha-ethyl-3-[[3-methoxy-5-(trifluoromethyl)phenyl]amino]-1-(2-methyl-4-pyridinyl)-1H-pyrazole-5-ethanol]
EC50 [1, 3]: 162 nM | PAM type [2]: 2

CNC(=O)Cc1cc(Nc2cccc(C(F)(F)F)c2)nn1-c1ccnc(C)c1 [Compound 42, N-methyl-1-(2-methyl-4-pyridinyl)-3-[[3-(trifluoromethyl)phenyl]amino]-1H-pyrazole-5-acetamide]
EC50 [1, 3]: 1860 nM | PAM type [2]: 4

Cc1cc(-n2nc(Nc3cccc(C(F)(F)F)c3)cc2CCC(=O)N(C)C)ccn1 [Compound 49, N,N-dimethyl-1-(2-methyl-4-pyridinyl)-3-[[3-(trifluoromethyl)phenyl]amino]-1H-pyrazole-5-propanamide]
EC50 [1, 3]: 295 nM | PAM type [2]: 4

CCNC(=O)Cc1cc(Nc2cccc(Cl)c2F)nn1-c1cc(C)nc(C)c1 [Compound 75, 3-[(3-chloro-2-fluorophenyl)amino]-1-(2,6-dimethyl-4-pyridinyl)-N-ethyl-1H-pyrazole-5-acetamide]
EC50 [1, 3]: 372 nM | PAM type [2]: 2

COc1cc(Cl)cc(Nc2cc(CC(=O)NC3CC3)n(-c3ccnc(C)c3)n2)c1 [Compound 77, 3-[(3-chloro-5-methoxyphenyl)amino]-N-cyclopropyl-1-(2-methyl-4-pyridinyl)-1H-pyrazole-5-acetamide]
EC50 [1, 3]: 603 nM | PAM type [2]: 4

Cc1cc(-n2nc(Nc3cccc(Cl)c3F)cc2CCC(=O)N(C)C)ccn1 [Compound 84, 3-[(3-chloro-2-fluorophenyl)amino]-N,N-dimethyl-1-(2-methyl-4-pyridinyl)-1H-pyrazole-5-propanamide]
EC50 [1, 3]: 661 nM | PAM type [2]: 4

COc1cc(Cl)cc(Nc2cc(CCC(=O)N(C)C)n(-c3ccnc(C)c3)n2)c1 [Compound 85, 3-[(3-chloro-5-methoxyphenyl)amino]-N,N-dimethyl-1-(2-methyl-4-pyridinyl)-1H-pyrazole-5-propanamide]
EC50 [1, 3]: 295 nM | PAM type [2]: 4

CC[C@H](O)Cc1cc(Nc2ccc(Br)cc2C#N)nn1-c1ccnc(C)c1 [Compound 124, 5-bromo-2-[[5-[(2S)-2-hydroxybutyl]-1-(2-methyl-4-pyridinyl)-1H-pyrazol-3-yl]amino]-benzonitrile]
EC50 [1, 3]: 1660 nM | PAM type [2]: 2
